The results in this text go back to paper PMC9323733, “Efficacy of Vafidemstat in Experimental Autoimmune Encephalomyelitis Highlights the KDM1A/RCOR1/HDAC Epigenetic Axis in Multiple Sclerosis” (Pharmaceutics, 2022).

One data set relates to lymphocytes. Put plainly: GLP toxicological studies, lymphocyte count, dogs. The class given is in vivo, Beagle dogs. Particulars: mean ± SD. The source says:
T r eat m e nt N Ly m p h o c y te s Equivalent m ou se d o se
( mg /k g p. o. ga va g e) (109/ L ) ( mg /k g p.o ga va ge)
6 m ont h s W i sta r r at s
9 m ont h s Be ag le d og s
Eff ec t of t r ea t me nt wi t h O RY-2 00 1 a d mi ni st e r e d by or al ga va ge o n l y m ph oc yt e s ob se r ve d i n G LP
t ox i c ol ogi c a l st udi e s i n r at a nd do g. A ni ma l s we r e t re a t e d or al l y (fi ve c o ns e c ut i ve da ys/ we e k) by ga va ge
28 da ys or 6 mo nt hs ( ra t s) a nd 28 da ys or 9 mo nt hs (dogs). Data re prese nt de me a n ± S D. T he e q ui va l e n t
dos e i n m o use i s i n di c at e d. 1-wa y A N OV A a n d D u n ne t t’ s M ul ti pl e C o m pa ri so n t e st wa s use d.

Data set [1] in a line: Drug exposure in male and female animals. The class given is in vivo. Particulars: mice and rats. The text has this:
Sex and Gender in this Research
Multiple sclerosis (MS) is more prevalent in women than men, but male patients develop more severe clinical symptoms and deteriorate faster than female patients. With respect to the animal models for MS used in this research, t he following aspects were considered: […]
and rats, which were not deemed relevant for this research. Previous efficacy studies in the […]
animals usedand perfo rm separate studies for male an female mice in MS models.
MOG35-55 induced EAE in C57BL/6 mice:
No differences have been observed in disease incidence or severity between sexes in MOG35-55 induced EAE in C57BL/6 mice in a study by Papenfuss et al. (J Neuroimmunol, 2004;150(1-2):59-69, therefore it was not deemed justified to increase the number of animals used in the studies to study males and females independently in the experiments reported in this […]
Although a higher incidence and severity has been reported for male than female SJL mice in the TMEV model (Alley et al. Exp Neurol, 2003 Mar;180(1):14-24), females are used in mo st studies because the strain of SJL male mice are very aggressive and display a high level of dominance and inflict wounds to their housemates. […]
Hypothetical sexual dimorphism in spinal cord organotypic cultures and chr onic excitotoxicity treatment derived from 8 day old Sprague-Dawley male or female pups was not assessed. […]

Data set [2] deals with SMI-32 positive motoneurons in spinal cord explants. Put plainly: Spinal cord organotypic cultures, chronic excitotoxicity (THA). The class given is cell-based, rat. The following applies: ORY-2001 5, 25 and 125 nM, THA 100 µM. How it is done: Lumbar spinal cords were aseptically obtained from 8-day-old Sprague-Dawley rat pups previously euthanized by pentobarbital overdose. The tissue was placed in ice-cold high glucose containing (6.4 mg/mL) Gey’s Balanced Salt Solution (GBSS). Meninges and roots were removed, and the spinal cord was transversely sectioned into 350 µm thick slices with a McIlwain Tissue Chopper. Four slices were carefully transferred onto 30-mm-diameter Millicell-CM membranes (0.4 µm, Millipore, Billerica, MA, USA) into a 6-well plate (35-mm-diameter, Falcon) containing 1 mL of incubation medium [50% (v/v) minimal essential medium (MEM), 25 mM Hepes, 25% (v/v) heat- inactivated horse serum, 2 mM glutamine and 25% (v/v) Hank’s Balanced Salt Solution (HBSS) supplemented with 25.6 mg/mL glucose; pH 7.2. Cultures were allowed to stabilize for 1 week at 37 °C in a 5% CO2/95% air humidified environment, and thereafter medium was changed twice per week. After 7 days of the explant culture, chronic glutamate excitotoxicity was induced by exposure at DL-threo-β-hydroxyaspartic acid (THA; 100 µM; Sigma-Aldrich, Saint Louis, MO, USA). […] Motoneurons, identified by SMI-32 immunostaining and localization in the ventral horn, were counted by using the Cell Counter plugin of ImageJ software. A minimum of 12 sections were evaluated for each experimental condition.

Turning to `Nc1nnc(CN[C@@H]2C[C@H]2c2ccc(OCc3ccccc3)cc2)o1` [ORY-2001], the Lymphocytes was 2.10 ± 0.60 109/L with lymphocytes (9 months Beagle dogs, 0.025 mg/kg p.o. gavage (equivalent mouse dose 0.15)); 2.90 ± 0.30 109/L with lymphocytes (9 months Beagle dogs, 0.075 mg/kg p.o. gavage (equivalent mouse dose 0.45)); 2.75 ± 1.04 109/L in the data set with lymphocytes (9 months Beagle dogs, 0.150 mg/kg p.o. gavage (equivalent mouse dose 0.90)); 3.31 ± 0.41 109/L with lymphocytes (28 d Beagle dogs, 0.025 mg/kg p.o. gavage (equivalent mouse dose 0.15)); 2.88 ± 1.02 109/L in the data set on lymphocytes (28 d Beagle dogs, 0.075 mg/kg p.o. gavage (equivalent mouse dose 0.45)); 4.33 ± 1.08 109/L in the data set with lymphocytes (28 d Beagle dogs, 0.225 mg/kg p.o. gavage (equivalent mouse dose 1.35)). For the same compound, in data set [1], the “difference of exposure between male and female animals” value was “Minor differences”. Besides, in data set [2], the “protection of motoneurons compared with riluzole (5 µM)” value is reported as “outperformed the effect exerted by riluzole”. Besides, the “survival of SMI32 positive motoneurons challenged with THA” value in data set [2] (to 28 DIV) was “protected the motoneurons from chronic excitotoxic stress at all doses tested”.
